Row | melting point | Compound
1 | 123 to 124 °C | C=C(CCC(C)C1CCC2(C)C3CCC4C(C)(C)C(O)CCC45CC35CCC12C)C(C)C (stereo not given)
2 | 123 to 124 °C | COc1cccc(-c2ccccc2C(=O)Nc2ccc(Cl)cc2)c1
3 | 138 to 140 °C | Nc1ccc(Cn2cnnn2)cc1
4 | 215 to 217 °C | Brc1oc2ccc(Cc3nnn[nH]3)cc2c1-c1ccccc1
5 | 136 to 137 °C | COc1nc(C)nc(NC(=O)NS(=O)(=O)C(C)S(=O)(=O)N2CCCC2)n1 (stereo not given)
6 | 238 °C | C1=c2ccccc2=C2N=c3ccc4ccccc4c3=C2C1
7 | 108 to 109 °C | CC(C)(C)c1noc(NS(=O)(=O)c2ccccc2)c1Br
8 | 129 to 130 °C | c1cnc(N2CCN(Cc3n[nH]c4ccccc34)CC2)nc1
9 | 278 to 280 °C | CC(C)(CO)c1ccc(C(=O)Nc2cn3cc(-n4ccnc4)ccc3n2)cc1
10 | 161 to 162 °C | COc1cccc(C(=O)c2[nH]c3cc(Cl)ccc3c2NC(C)=O)c1
11 | 210 to 212 °C | CCCCCCc1ncc(/C=C(\Cc2cccs2)C(=O)O)n1Cc1ccc(C(=O)O)cc1
12 | 41 to 43 °C | CCOC(=O)COC1CC(C)(C)N(O)C(C)(C)C1
13 | 139 to 140 °C | CCOC(=O)C1=C(C)NC(=O)N(C(=O)OC(C)C)C1c1cccc(Cl)c1Cl (stereo not given)
14 | 132 to 134 °C | CC(C)CNc1cccnc1N1CCN(C(=O)c2ccc(C(=O)NC(C)C)cn2)CC1
15 | 166 to 167 °C | COc1ccc(NC(=O)N(O)C2CCCCCCC2)cc1
16 | 60.5 °C | C=CCCC(C#N)(C#N)Cc1ccc(OC(F)(F)C(F)F)cc1
17 | 96 to 97 °C | CCOC(=O)NC(C)C(=O)c1ccc2cc(OC)ccc2c1 (single isomer, unassigned; (+))
18 | 94 to 95 °C | O=C(NCCO)c1cccc(-c2cccc3nc(Cc4cccc(C(F)(F)F)c4)sc23)c1
19 | 184 to 185 °C | c1nc(NCCN2CCOCC2)c2sc3nc(N4CCOCC4)c4c(c3c2n1)CCOC4
20 | 236 to 238 °C | O=C1Nc2cccc(-c3cccc(NC(=O)c4ccc(O)cc4)c3)c2/C1=C/c1ccc[nH]1
21 | 152 to 153 °C | CCOC(=O)CSc1c(C(=O)OCC)[nH]c2cc(Cl)cc(Cl)c12
22 | 189 to 190 °C | CC1(CNC(=O)CC2CN=C(c3cc4cc(Oc5ccc(S(C)(=O)=O)nc5)cc(OC5CCOCC5)c4[nH]3)S2)COC1 (stereo not given)
23 | 144 to 146 °C | Cn1cc(-c2ccc(Br)cc2)c(=O)c(-c2cccc(C(F)(F)F)c2)c1
24 | 194 °C | N#CCc1ccc(NC(=O)c2ccc(C=O)cc2)cc1
25 | 211 to 212 °C | O=C(NC1CC=CCC1)NS(=O)(=O)c1ccc2c(c1)CCN(C(=O)N1CCCC1)CC2 (stereo not given)

Row | melting point | Compound
26 | 275 °C | CS(=O)(=O)c1c(Cl)nc(N)nc1Cl
27 | 230 to 232 °C | COc1ccc(Cc2n[nH]c3c2c(=O)n(-c2ccccc2)c2ncccc32)cc1OC
28 | 62 to 64 °C | CCCc1c(OCCCOc2cc(O)c(-c3ccc(F)cc3)cc2CC)cccc1Oc1cc(F)ccc1C(=O)O
29 | 62 to 63 °C | CCCCCCCCCCCCCCCCCCNC(=O)SCC(CO)OC (stereo not given)
30 | 71 to 73 °C | CCNC(=O)n1ccc2ccccc21
31 | 200 to 201 °C | NS(=O)(=O)c1c(Cl)cccc1CN1CCOC1=O
32 | 140 to 142 °C | C#CC(C)N(C)C(=O)Nc1ccc(Oc2cccc(Cl)n2)cc1 (stereo not given)
33 | 237 to 239 °C | Cc1cc(C(F)(F)F)n2nc(S(=O)(=O)Nc3c(Cl)cccc3Cl)nc2n1
34 | 228 to 230 °C | Cc1nc(-c2[nH]c3ccccc3c2C=O)no1
35 | 97 °C | CCN(CC)C(=O)COc1cc(-c2ccccc2)nc2ccccc12
36 | 195 to 196 °C | COc1ccc(CSC(=S)N2Cc3[nH]c4ccccc4c3CC2C(=O)O)cc1 (stereo not given)
37 | 84 to 86 °C | C#CC[C@H]1CC[C@H](C(=O)O)CC1
38 | > 260 °C | O=C(NC12CC3CC(CC(C3)C1)C2)n1cc(F)c(=O)[nH]c1=O
39 | 163 to 164 °C | NS(=O)(=O)c1cnccc1C1=NOCCO1
40 | 166 °C | Cc1ccnc(-c2cncc(OC3SCC(O)C(O)C3O)c2)c1 (stereo not given)
41 | 87 to 89 °C | COC(=O)COc1ccc(O)c(C(C)(C)C)c1
42 | 184 to 186 °C | O=C(Nc1ccc(F)cc1F)C(=O)c1c2n(c3ccccc13)CCNCC2
43 | 154 to 157 °C | CCOC(=O)Nc1c(C(=O)c2cccc(C)c2)[nH]c2cc(Cl)ccc12
44 | 259 to 260 °C | CC(C)c1[nH]c2ccccc2c1C=C1SC(=S)N(CC(=O)O)C1=O
45 | 130 to 134 °C | O=C1c2c(OCc3ccccc3)cccc2-c2nn(CCN(CCO)Cc3ccccc3)c3ccc(Cl)c1c23
46 | 189 to 192 °C | CN1[C@H](Cc2ccc(C(N)=NO)cc2)[C@@H]2C(=O)N(Cc3ccccc3)C(=O)[C@@H]2C1(C)C (racemic)
47 | 237 to 238 °C | COc1nc(C)c(CC2CC2)c(C(O)c2cc(Cl)cc(C#N)c2)c1C(C)C (stereo not given)
48 | 283 °C | COc1ccc(C(=O)Nc2ccc3ccc(C#N)nc3n2)cc1
49 | 78 to 90 °C | CCCNC(=O)C(C)(C)Cc1ccc2c(c1)c(Cc1ccc(C(=O)O)cc1OC)cn2CCC
50 | 207 °C | COc1cc(-n2nc(C(F)(F)F)cc2-c2ccc(-c3ccco3)cc2)ccc1S(N)(=O)=O

Row | melting point | Compound
51 | 233 to 234 °C | COCCc1nc2c(N)nc3cc(-c4ccsc4)ccc3c2n1CC(C)(C)O
52 | 219 to 220 °C | Nc1cc2c(cc1C(=O)CNC(=O)C(F)(F)F)OCO2
53 | 111 to 119 °C | CCN(C(=O)C1CC1)c1cn(-c2cccnc2)nc1Cl
54 | 244 to 245 °C | COc1cnc(Cl)nc1NS(=O)(=O)c1cccc(Cl)c1Cl
55 | 125 to 127 °C | CCCCN=C(CS(C)=O)c1cccc(OC)c1O (stereo not given)
56 | 215 to 218 °C | CS(=O)(=O)c1ccc(-c2cnn(CC(F)(F)F)c(=O)c2C2CCCCC2)cc1
57 | 144 to 145 °C | COC(=O)c1ccc(C2CC(=O)NC2(CO)CO)c([N+](=O)[O-])c1 (stereo not given)
58 | > 260 °C | O=C1c2ccccc2C(=O)c2sc(-c3ccncc3)nc21
59 | > 250 °C | CC(C)CN1CCCCC1C(=O)Nc1cc(C(F)(F)F)ccc1-c1cc(Oc2cccc3[nH]c(=O)c(N)nc23)ncn1 (stereo not given)
60 | 104 to 106 °C | C=CC[C@@H]1CCC(=O)C[C@H]1c1ccc(OCc2ccccc2)cc1OCc1ccccc1 (relative stereo)
61 | 131 to 132 °C | CCS(=O)(=O)C(F)(F)C(O)(Cn1cncn1)c1ccc(F)cc1 (stereo not given)
62 | 140 to 142 °C | O=C1CCC(N2C(=O)c3ccccc3C2=O)CC1
63 | 65 to 67 °C | CC(C)(C)OC(=O)N1CCN(C2CC2)CC1
64 | 96 °C | COc1cc(C(=O)NC=NC(=O)ON(c2ccc(C)c(NC(=O)c3ccc(C(=O)c4ccccc4)cc3)c2)C(C)(C)C)cc(OC)c1OC
65 | 167 °C | Cc1ccc(-c2cc(CNc3cc(CNc4cc(-c5ccc(C)cc5)[nH]n4)n[nH]3)n[nH]2)cc1
66 | 195 to 196 °C | CC(C)(C)c1cc(CCc2ccccc2NC(=O)NCC(C)(C)c2ccc(N3CCCC3)cc2)cc(C(C)(C)C)c1O
67 | 94 °C | CCC(CC(Oc1ccccc1)C(=O)O)Oc1ccc(Cl)cc1 (stereo not given)
68 | 265 to 268 °C | Nc1cc2c(Nc3ccc(Br)c(Br)c3)ncnc2cn1
69 | 151 to 152 °C | CC(C)c1ccc2c(c1)OC1(O)c3ccccc3C(=O)C21N (stereo not given)
70 | 226 to 227 °C | CC(c1oc2ccccc2c(=O)c1-c1ccccc1)n1ncc2c(N)ncnc21 (stereo not given)
71 | 169 to 172 °C | Fc1ccc2nc(-c3ccc(Cl)cc3)cc(Cl)c2c1
72 | 61 to 75 °C | O=CNCc1ccccc1C(F)(F)C(F)(F)c1ccccc1
73 | 82 to 84 °C | COC(=O)c1ccccc1Sc1ccccc1OC
74 | 139 to 143 °C | CCc1oc2ccccc2c1C(=O)NCc1ccc2c(Br)c(OC(Cc3ccccc3)C(=O)OC)ccc2c1 (stereo not given)
75 | 218 °C | O=C(O)c1nn(-c2ccc(Cl)cc2)c2c1CCCC2

Row | melting point | Compound
76 | 208 to 209 °C | CCCCOc1nc(N)c2[nH]c(=O)n(CCCNc3cccc(CC(=O)OC)c3)c2n1
77 | 87 to 90 °C | COc1ccc2cc(C(C)C(=O)OCC(=O)OCCO)ccc2c1 (stereo not given)
78 | 117 to 118 °C | CCNS(=O)(=O)c1cncc([N+](=O)[O-])c1
79 | 42 to 43 °C | CCCc1cc2c(c(Br)c1O)CCO2
80 | 183 to 185 °C | Cc1cc(-c2cccnc2)n2ncnc2n1
81 | 226 to 228 °C | COc1ccc(-c2nc3ccc(OC(F)(F)F)cc3[nH]2)cc1OCc1ccccc1
82 | 139 °C | CCOC(=O)Nc1ccc(OCc2ccc(Cl)nc2)cc1F
83 | 95 to 100 °C | CCCCc1nc2c(N)nc3cccnc3c2n1CCCCN1CC(C(N)=O)=CC=C1N1CCOCC1
84 | 115 to 116 °C | COC(=O)c1cc(OC)c(N=Nc2ccccc2)c(OC)c1
85 | 134 to 136 °C | COC(=O)C(C)(C)OCC#Cc1cc(C(F)(F)F)ccc1NS(=O)(=O)c1ccc2c(c1)CCN2C(C)=O
86 | 77.5 to 78 °C | O=C(O)CCCCCSC1=CCCC1=O
87 | 110 to 115 °C | CCOC(=O)C1=C(C(F)(F)F)Nc2n[nH]cc2C1c1ccccc1 (stereo not given)
88 | 152 to 154 °C | O=C(O)C(CSc1nccs1)CS(=O)(=O)c1ccc(-c2ccc(Cl)cc2)cc1 (stereo not given)
89 | 122 to 123 °C | Nc1nnc(-c2ccccc2Nc2cccc(C(F)(F)F)c2)s1
90 | 173 to 175 °C | Clc1cc(Cl)nc(-n2cnc3ccccc32)n1
91 | 142 to 144 °C | Cn1cnc2c1c(=O)n(CCCBr)c(=O)n2C
92 | 134 to 135 °C | O=Cc1ccc2c(c1)CC[C@H](Cc1ccc(O)cc1)O2
93 | 63 to 65 °C | CC(C)=CCCC(C)=CCCC(C)=CC=CC(C)=CC(N)=O
94 | 162 to 163 °C | O=C(O)Cc1ccc(C(=O)c2ccc(Cl)cc2)n1Cc1ccccc1
95 | 156 to 158 °C | CC(C)(C)NC(=O)N(Cc1ccccc1)CC(O)C(Cc1ccccc1)NC(=O)C(CC(N)=O)NC(=O)NCc1ccccc1 (stereo not given)
96 | 133 °C | COc1ccc2ccc(N3C(=O)c4ccccc4C3OC(=O)CCC(C)C)nc2n1 (stereo not given)
97 | 90 to 92 °C | CC(C)(C)OC(=O)COc1coc(CO)cc1=O
98 | 213 to 214 °C | CC(O)=C(C#N)C(=O)Nc1cccc(S(C)(=O)=O)c1

Row | Compound | melting point
99 | CC(C)(C)OC(=O)C(=[N+]=[N-])C(=O)CCl | 40 to 41 °C
100 | CC(=O)Nc1ccc([N+]([O-])=NC#N)cc1 | 240 to 242 °C

Reference: a melting point compilation (Tetko et al.; mined from patent text by program, amines drawn as free bases though some values may be those of a salt)
